Measurements from PubChem BioAssay AID2060345 (Molecular Pharmacology Branch, DTP, NCI, 2025).

Tested on: MALME-3M multicell spheroids, viability
Test: Anticancer human tumor MALME-3M cell line growth inhibition [TAK];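 note: spheroids exposed to drugs for seven days before readout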;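 for viability, T/C: 100% = DMSO vehicle control viability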
Conditions: for IC50: curve of first compound; for viability, T/C: stronger effect = lower value
Text: Combinatorial screen of targeted agents with TAK-243 and ipatasertib in multi-cell type tumor spheroids
A high-throughput screen of multi-cell type tumor spheroids was designed to identify active combinations of targeted small molecules and TAK-243 or ipatasertib. Complex spheroids include a stromal component modeled by human endothelial cells (HUVEC) and fibroblasts modeled by human mesenchymal stem cells (MSCs). The concentration ranges selected for each drug and investigational agent were based upon clinically achievable concentrations if the clinical Cmax of the agent was known.
Compounds. The drugs and investigational agents: TAK-243 (785004), ipatasertib (767898), everolimus (733504), selumetinib (741078), bortezomib (756655), trametinib (758246), ixazomib (758254), vemurafenib (761431), dabrafenib (764134), sapanisertib (764658), alpelisib (765974), and copanlisib (816437), were obtained from the National Cancer Institute (NCI) Developmental Therapeutics Program Chemical Repository. The FDA-approved anticancer drug set is available from the NCI Developmental Therapeutics Program. […] The stock solutions were prepared in dimethyl sulfoxide (DMSO, Sigma-Aldrich, St. Louis, MO, cat. D2650) at 800-fold the tested concentration and stored at -70 degrees C prior to their use. All drugs and investigational agents were tested over a range starting from a high concentration at or near the clinical Cmax and decreasing in half-log increments. If the clinical Cmax for an agent had not been determined, the highest concentration tested was 10 microM.
NCI60 Cell Culture. NCI60 cell lines were obtained from the NCI Developmental Therapeutics Program Tumor Repository. For each lot of cells, the Repository performed Applied Biosystems AmpFLSTR Identifiler testing with PCR amplification to confirm consistency with the published Identifier STR profile for each cell line. Cells were kept in continuous culture for no more than 20 passages. The optimal seeding densities for each of the cell lines at each time point assessed were determined prior to performing the concentration response studies. Briefly, the NCI60 human tumor lines were grown as monolayers in RPMI 1640 medium supplemented with 10% FBS and 2 mmol/L L-glutamine.
An additional 2 lines were from the NCI60 cell line panel including melanomas, MALME-3M and SK-MEL-2. Pooled donor human umbilical vein endothelial cells (HUVEC, Lonza, cat. CC-2519) and human mesenchymal stem cells (hMSC, Lonza, cat. PT-2501) were purchased from Lonza (Walkersville, MD).
PDMR cell lines were grown in complete medium (DC medium): Dulbecco's modified Eagle's medium (DMEM)/F12 supplemented with 5% fetal bovine serum (FBS), 2 mM L-glutamine, 100 U/mL penicillin and 100 µg/ml streptomycin, 0.4 µg/ml hydrocortisone, 10 ng/ml epidermal growth factor (EGF) recombinant human protein, 24 µg/mL adenine, and 0.1 mg/mL primocin. During culture from frozen stock vials, PDMR cells were cultured in the same medium containing 10 µM Y-27632 (see Table 3). The PDCs were cultured in complete DMEM/F12 media without 10 microM Y-27632 dihydrochloride for at least two passages prior to the screen. The pooled donor HUVEC and hMSC were cultured in endothelial cell growth medium 2 (PromoCell, Heidelberg, Germany, cat. C-22011) and mesenchymal stem cell growth medium 2 (PromoCell, cat. C-28009), respectively. For all experiments, HUVEC and hMSC were used at passages </=5.
For the pre-screen, cell seeding densities were determined from a titration spanning the range from 5,000 to 313 cells per well. The mct-spheroids including 60% malignant cells, 25% HUVEC and 15% MSC dispensed as a mixture into U-bottom Ultra-Low Attachment 384-well plates (Corning, NY)
High-throughput Drug Combination Screening.
Prior to their inoculation into 384-well plates, malignant cells, HUVEC, and hMSC were removed from T flasks using TrypLE express (Thermo Fisher Scientific, cat. 12605036) and harvested by centrifugation for 5 min at 233 x g. […]

## CC(C)CC(NC(=O)C(Cc1ccccc1)NC(=O)c1cnccn1)B(O)O (stereo not given) + CC(C)NCC(C(=O)N1CCN(c2ncnc3c2C(C)CC3O)CC1)c1ccc(Cl)cc1
Second compound 0.3 µM
  IC50: 2.51 nM
Second compound 0.949 µM
  IC50: 2.26 nM
Second compound 3 µM
  IC50: 2.29 nM
Second compound 9.49 µM
  IC50: 1.86 nM
Second compound 30 µM
  IC50: 1.05 nM
Second compound 0.3 µM, first compound 31.6 pM
  viability, T/C: 124%
Second compound 0.3 µM, first compound 0.0001 µM
  viability, T/C: 103%
Second compound 0.3 µM, first compound 0.000316 µM
  viability, T/C: 108%
Second compound 0.3 µM, first compound 0.001 µM
  viability, T/C: 122%
Second compound 0.3 µM, first compound 0.00316 µM
  viability, T/C: 33.9%
Second compound 0.3 µM, first compound 0.01 µM
  viability, T/C: 0.71%
Second compound 0.949 µM, first compound 31.6 pM
  viability, T/C: 113%
Second compound 0.949 µM, first compound 0.0001 µM
  viability, T/C: 110%
Second compound 0.949 µM, first compound 0.000316 µM
  viability, T/C: 107%
Second compound 0.949 µM, first compound 0.001 µM
  viability, T/C: 111%
Second compound 0.949 µM, first compound 0.00316 µM
  viability, T/C: 25.4%
Second compound 0.949 µM, first compound 0.01 µM
  viability, T/C: 0.85%
Second compound 3 µM, first compound 31.6 pM
  viability, T/C: 86.4%
Second compound 3 µM, first compound 0.0001 µM
  viability, T/C: 95.8%
Second compound 3 µM, first compound 0.000316 µM
  viability, T/C: 91.2%
Second compound 3 µM, first compound 0.001 µM
  viability, T/C: 91.5%
Second compound 3 µM, first compound 0.00316 µM
  viability, T/C: 33.9%
Second compound 3 µM, first compound 0.01 µM
  viability, T/C: 0.73%
Second compound 9.49 µM, first compound 31.6 pM
  viability, T/C: 81%
Second compound 9.49 µM, first compound 0.0001 µM
  viability, T/C: 87.5%
Second compound 9.49 µM, first compound 0.000316 µM
  viability, T/C: 75.5%
Second compound 9.49 µM, first compound 0.001 µM
  viability, T/C: 83.4%
Second compound 9.49 µM, first compound 0.00316 µM
  viability, T/C: 22.7%
Second compound 9.49 µM, first compound 0.01 µM
  viability, T/C: 0.55%
Second compound 30 µM, first compound 31.6 pM
  viability, T/C: 54.9%
Second compound 30 µM, first compound 0.0001 µM
  viability, T/C: 57.2%
Second compound 30 µM, first compound 0.000316 µM
  viability, T/C: 52%
Second compound 30 µM, first compound 0.001 µM
  viability, T/C: 51.7%
Second compound 30 µM, first compound 0.00316 µM
  viability, T/C: 13.2%
Second compound 30 µM, first compound 0.01 µM
  viability, T/C: 0.96%

## Cn1cnc2c(F)c(Nc3ccc(Br)cc3Cl)c(C(=O)NOCCO)cc21 + CC(C)NCC(C(=O)N1CCN(c2ncnc3c2C(C)CC3O)CC1)c1ccc(Cl)cc1
Second compound 0.3 µM
  IC50: 41.1 nM
Second compound 0.949 µM
  IC50: 36 nM
Second compound 3 µM
  IC50: 36.5 nM
Second compound 9.49 µM
  IC50: 17.2 nM
Second compound 30 µM
  IC50: < 9.49 nM
Second compound 0.3 µM, first compound 0.00949 µM
  viability, T/C: 92.5%
Second compound 0.3 µM, first compound 0.03 µM
  viability, T/C: 60.7%
Second compound 0.3 µM, first compound 0.0949 µM
  viability, T/C: 21%
Second compound 0.3 µM, first compound 0.3 µM
  viability, T/C: 19%
Second compound 0.3 µM, first compound 0.949 µM
  viability, T/C: 13.1%
Second compound 0.3 µM, first compound 3 µM
  viability, T/C: 5.91%
Second compound 0.949 µM, first compound 0.00949 µM
  viability, T/C: 86.2%
Second compound 0.949 µM, first compound 0.03 µM
  viability, T/C: 55.6%
Second compound 0.949 µM, first compound 0.0949 µM
  viability, T/C: 23.5%
Second compound 0.949 µM, first compound 0.3 µM
  viability, T/C: 16.7%
Second compound 0.949 µM, first compound 0.949 µM
  viability, T/C: 12%
Second compound 0.949 µM, first compound 3 µM
  viability, T/C: 4.79%
Second compound 3 µM, first compound 0.00949 µM
  viability, T/C: 78.3%
Second compound 3 µM, first compound 0.03 µM
  viability, T/C: 56.6%
Second compound 3 µM, first compound 0.0949 µM
  viability, T/C: 19.6%
Second compound 3 µM, first compound 0.3 µM
  viability, T/C: 16.3%
Second compound 3 µM, first compound 0.949 µM
  viability, T/C: 9.28%
Second compound 3 µM, first compound 3 µM
  viability, T/C: 3.64%
Second compound 9.49 µM, first compound 0.00949 µM
  viability, T/C: 66.8%
Second compound 9.49 µM, first compound 0.03 µM
  viability, T/C: 33.1%
Second compound 9.49 µM, first compound 0.0949 µM
  viability, T/C: 19.6%
Second compound 9.49 µM, first compound 0.3 µM
  viability, T/C: 12.1%
Second compound 9.49 µM, first compound 0.949 µM
  viability, T/C: 7.13%
Second compound 9.49 µM, first compound 3 µM
  viability, T/C: 2.1%
Second compound 30 µM, first compound 0.00949 µM
  viability, T/C: 47.3%
Second compound 30 µM, first compound 0.03 µM
  viability, T/C: 31.6%
Second compound 30 µM, first compound 0.0949 µM
  viability, T/C: 13.1%
Second compound 30 µM, first compound 0.3 µM
  viability, T/C: 7.49%
Second compound 30 µM, first compound 0.949 µM
  viability, T/C: 3.66%
Second compound 30 µM, first compound 3 µM
  viability, T/C: 0.52%
